Source: patent publication US7666608B2, “Methods for determining drug responsiveness” (The Trustees of the University of Pennsylvania, priority 2002, dated 2010)

What was measured:
[1] = test system: human SAA1 promoter; test: SAA1 promoter luciferase reporter construct in HepG2 cells; assay type: cell-based; details: HepG2, pGL2-SAA1pt
Description: The pGL2-SAA1pt construct was generated as follows. The proximal 3.1 kb of genomic sequence upstream of the human SAA1 transcription start site plus the full 37 bases of 5′UTR was amplified by polymerase chain reaction (PCR) from human genomic DNA (Roche Biomolecular) using forward and reverse primers, HSAA1PF (5′-GAATTCACGCGTTT-[…]-3′) (SEQ ID NO:10) and HSAAPR (5′-[…]-GCTGAGCTGCGGG-3′) (SEQ ID NO:11), that incorporate Mlu1 and Nco1 restriction sites, respectively. The product was digested with Mlu1 and Nco1 and directionally cloned into a pGL2 vector which had been modified to include an Nco1 site at the start of the luciferase coding sequence and contains the human SAA2 3′UTR (Longley et al. (1999) J. Immunol. 163:4537-45).
Constructs pGL2-SAA1[0.7] and pGL2-SAA1[0.25] containing 704 and 233 bases of promoter sequence respectively, were generated from pGL2-SAA1pt by PCR using the forward primers 5′-[…]-CAGCCTTGACC-3′ (SEQ ID NO:12) and 5′-GAATTCACGCGTGGTCT-CCTGCCTG-3′ (SEQ ID NO:13) respectively, and the reverse primer HSAAPR.
Human HepG2 hepatoma cells (ATCC) were cultured in DMEM containing 10% FCS, gentamycin, sodium pyruvate and non-essential amino acids (Gibco BRL). Cells were seeded into 24 well plates 24 hours prior to transfection using FuGENE (Roche Biomolecular) as described in Jensen et al. (2000) J. Immunol. 164:5277-86. Cells transfected with SAA promoter luciferase reporter constructs and renilla control plasmid, were incubated for 16 to 20 hours before replacement of culture medium with fresh medium alone or fresh medium containing 10 ng/ml cytokines and/or dexamethasone and/or RU486 (Mifepristone). IL-1 was purchased from Peprotech. IL-6 was obtained from AstraZeneca. Dexamethasone and RU486 were obtained from Sigma.
(§1) Cells were harvested at various times post-treatment, washed in PBS and resuspended in Passive Lysis Buffer (Promega, Madison, Wis.). […] Each treatment was carried out in triplicate and the mean ratio of luciferase to renilla activity and standard deviations were calculated. […]

[2] = test system: human SAA2 promoter; test: SAA2 promoter luciferase reporter construct in HepG2 cells; assay type: cell-based; details: HepG2, pGL2-SAA2pt, cytokines 10 ng/ml
Description: The pGL2-SAA2pt construct, which contains 1.2 kb of the human SAA2 promoter upstream of a luciferase reporter was generated as follows. A 1196 bp of the promoter region and 22 bp of the first exon of the human acute phase SAA2 gene was amplified by PCR with the introduction of MluI and XhoI restriction sites at the 5′ and 3′ ends respectively (5′ oligonucleotide: 5′ […]-TACTTCCT-′3′ (SEQ ID NO: 8); 3′ oligonucleotide: 5′-[…]-[…]-3′ (SEQ ID NO:9). The PCR product was subsequently cloned into the multiple-cloning site of the pGL2-Basic vector (Promega, Madison, Wis., USA) which is located upstream of a luciferase reporter gene.
Constructs pGL2-SAA2[0.7] and pGL2-SAA2[0.25] containing 700 and 239 bases of promoter sequence respectively, were generated from pGL2-SAA2pt by PCR using the forward primers 5′-[…]-3′ (SEQ ID NO:14) and 5′-[…]-3′ (SEQ ID NO:15) respectively, and the reverse primer HSAAPR.
Human HepG2 hepatoma cells (ATCC) were cultured in DMEM containing 10% FCS, gentamycin, sodium pyruvate and non-essential amino acids (Gibco BRL). […]
as §1

## CC#C[C@]1(O)CC[C@H]2[C@@H]3CCC4=CC(=O)CCC4=C3[C@@H](c3ccc(N(C)C)cc3)C[C@@]21C [RU486, Mifepristone]
[1]; 10 nM RU486 alone with IL-1 plus IL-6, 4 h
  effect on cytokine driven SAA1 promoter transcriptional activity: no measurable effect
[1]; 10 nM RU486 with 100 nM dexamethasone and IL-1 plus IL-6, 4 h
  block of dexamethasone enhancement of cytokine induction of the SAA1 promoter: completely blocked

## C[C@@H]1C[C@H]2[C@@H]3CCC4=CC(=O)C=C[C@]4(C)[C@@]3(F)[C@@H](O)C[C@]2(C)[C@@]1(O)C(=O)CO [dexamethasone]
[1]; dexamethasone alone (50 nM), 3, 6, 9, 24 h
  effect on the SAA1 promoter: no effect

## IL-6: cytokine, obtained from AstraZeneca
[2]; 3, 6, 9, 24 h
  kinetic profile of cytokine driven SAA2 promoter readout: highest at 3 hours and decreased through 24 hours
[2]; 3-24 h
  induction of the SAA2 promoter: moderately induced
